Consider ten compounds from patent publication US5965607A, “Substituted Benzo[1,4]dioxines as antiobesity agents” (American Home Products Corporation, priority 1997, dated 1999).

One test relates to plasma free fatty acids. Briefly: Effects on free fatty acid levels in rats. The format is in vivo, rat. As to conditions: for Rat Free Fatty Acid, elevation of plasma free fatty acids as % of Standard 2 response: 0.1 mg/kg via gavage, blood collected 50 min later, relative to Standard 2 at 0.1 mg/kg. Here is the method:
Rats respond to a single oral dose of β3 agonist by increasing plasma free fatty acids (FFA) in response to β3 receptor stimulation on the plasma membrane of the fat cell. 5-{2-[2-(3-Chloro-phenyl)-2-hydroxy-ethylamino]-propyl}-benzo[1,3]dioxole- 2,2-dicarboxylic acid diisopropyl ester (Standard 2) was used as a standard compound. All test compounds were dosed at 0.1 mg/kg and compared to the response by Standard 2.
1). Drugs were dissolved in DMSO at 10 mg/mL.
2). Twenty μl of the DMSO-drug solution was added to 10 mL methyl cellulose:Tween-80 (0.5%:0.1%) for a final concentration of 20 μg/mL.
3). Methyl cellulose:tween-80 drug suspension was given via gavage (1 mL/200g body weight; or 0.1 mg/kg) to rats and blood was collected 50 min later.
4). Plasma was analyzed for free fatty acids using a kit supplied by Biochemical Diagnostics Inc. (Brentwood, N.Y.).
5). Drug response was calculated from the formula below. [formula] Effects on Hyperglycemia in Mice
b Elevation of plasma free fatty acids in rats, compounds tested at 0.1 mg/kg, results expressed as % of 5-{2-[2-(3-chloro-phenyl)-2-hydroxy-ethylamino]-propyl}-benzo[1,3]dioxole- 2,2-dicarboxylic acid diisopropyl ester response (78% increase) at 0.1 mg/kg.

For test [1], the target named is human β3 adrenergic receptors (Homo sapiens, UniProt P13945). Briefly: cAMP elevation in CHO cells transfected with human β3 adrenergic receptor. The following applies: 10 min, CHO cells expressing human β3 receptor, compound at 10 nM, 37° C., relative to isoproterenol at 10 μM; for activation at 0.01 µM: read-out: β3, % of isoproterenol activity (increase in cAMP). It is filed as cell-based. How it is done:
(§1) The activity of the test compounds on human β-adrenergic receptors was determined with Chinese hamster ovary (CHO) cells transfected with human β3, β2, or β1 adrenergic receptors. The preparation of these cells has been described in Emorine, L. J., Marullo, S., Briend-Sutren, M., Patey, G., Tate, K., Delavier-Klutchko, C., Strosberg, A. D. Molecular Characterization of the Human Beta 3-AdrenergicReceptor Science 1989,245(8), 1118-1121 and in Muzzin, P., Revelli, J.-P., Kuhne, F., Gocayne, J. D., McCombie, W. R., Venter, J. C., Giacobino, J.- P., Fraser, C. M. An Adipose Tissue-Specific Beta 3-Adrenergic Receptor. Molecular Cloning and Down-Regulation in Obesity J. Biol. Chem. 1991, 226, 24053-24058. Agonist activity is indicated by increased cAMP levels in the CHO cells. Selectivity of the test compounds for the β3 receptor was assessed by comparison with results in β2 and β1 adrenergic receptor transfected cells.
(§2) 1). Chinese hamster ovary (CHO) cells transfected with human β3, β2, or β1 adrenergic receptors were used in the assay.
(§3) 2). Cells were grown to confluent conditions in 24 well plates.
(§4) 3). Drugs were dissolved in DMSO at a concentration of 10 μM.
(§5) 4). Cells were incubated with drug at 10 nM concentration for 10 min at 37° C. Isoproterenol (Standard 1) was used as the standard compound and assayed at 10 μM which gives a maximal cAMP elevation in all 3 cell types.
(§6) 5). Cell cAMP concentrations were assayed using a scintillation proximity assay from Amersham Corp (Chicago, Ill.).
(§7) 6). Activities for the test compounds are expressed as a percentage of the isoproterenol response.
(§8) a Human β receptors expressed in Chinese hamster ovary cells, compounds tested at 10 nM, results expressed as % of isoproterenol activity (increase in cAMP) at 10 μM.

For test [2], the target named is human β2 adrenergic receptors (Homo sapiens, UniProt P07550). Briefly: cAMP elevation in CHO cells transfected with human β2 adrenergic receptor. It is filed as cell-based. The following applies: 10 min, CHO cells expressing human β2 receptor, compound at 10 nM, 37° C., relative to isoproterenol at 10 μM; for activation at 0.01 µM: read-out: β2, % of isoproterenol activity (increase in cAMP). Here is the method:
as §1, §2, §3, §4, §5, §6, §7, §8

Chain of human β2 adrenergic receptors (P07550 whole entry): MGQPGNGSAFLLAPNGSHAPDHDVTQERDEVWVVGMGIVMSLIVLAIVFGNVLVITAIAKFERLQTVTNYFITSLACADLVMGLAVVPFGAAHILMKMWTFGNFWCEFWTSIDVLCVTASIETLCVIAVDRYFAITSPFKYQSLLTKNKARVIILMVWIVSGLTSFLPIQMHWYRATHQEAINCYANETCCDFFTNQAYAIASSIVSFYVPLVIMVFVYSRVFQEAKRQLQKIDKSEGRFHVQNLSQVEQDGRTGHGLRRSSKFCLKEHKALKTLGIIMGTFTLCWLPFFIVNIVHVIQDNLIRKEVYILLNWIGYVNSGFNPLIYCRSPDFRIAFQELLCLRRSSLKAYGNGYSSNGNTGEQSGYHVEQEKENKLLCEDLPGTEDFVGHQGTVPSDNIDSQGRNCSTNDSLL
Chain of human β3 adrenergic receptors (P13945 whole entry): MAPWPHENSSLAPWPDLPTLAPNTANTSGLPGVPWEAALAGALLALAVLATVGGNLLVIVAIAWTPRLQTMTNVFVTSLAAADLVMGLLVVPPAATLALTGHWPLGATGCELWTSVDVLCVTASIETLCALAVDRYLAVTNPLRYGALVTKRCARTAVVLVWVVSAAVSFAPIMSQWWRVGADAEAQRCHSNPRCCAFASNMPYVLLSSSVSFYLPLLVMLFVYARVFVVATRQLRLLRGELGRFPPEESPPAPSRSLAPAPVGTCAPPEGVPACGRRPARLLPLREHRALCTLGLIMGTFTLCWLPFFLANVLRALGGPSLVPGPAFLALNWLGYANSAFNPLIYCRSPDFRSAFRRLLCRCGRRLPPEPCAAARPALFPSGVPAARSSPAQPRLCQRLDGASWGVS

`CCCCCCCCOC(=O)C1Oc2ccc(C[C@@H](C)NC[C@H](O)c3cccc(Cl)c3)cc2OC1C(=O)OCCCCCCCC` (stereo partly drawn) [Example 11, (2,3-cis)-6-{(2R)-2-[(2R)-2-(3-Chloro-phenyl)-2-hydroxy-ethylamino]-propyl}-2,3-dihydro-benzo[1,4]dioxine-2,3-dicarboxylic acid dioctyl ester]: the “Rat Free Fatty Acid, elevation of plasma free fatty acids as % of Standard 2 response” value in the test with plasma free fatty acids is listed as 5%. The activation at 0.01 µM in test [1] came to 97%; in test [2], 38%.
For `CCOC(=O)C1Oc2ccc(C[C@@H](C)NC[C@H](O)c3cccc(Cl)c3)cc2OC1C(=O)OCC` (stereo partly drawn) [Example 8, (2,3-cis)-6-{(2R)-2-[(2R)-2-(3-Chloro-phenyl)-2-hydroxy-ethylamino]-propyl}-2,3-dihydro-benzo[1,4]dioxine-2,3-dicarboxylic acid diethyl ester], the “Rat Free Fatty Acid, elevation of plasma free fatty acids as % of Standard 2 response” value with plasma free fatty acids stood at 19%.
Turning to `CCCCOC(=O)C1Oc2ccc(C[C@@H](C)NC[C@H](O)c3cccc(Cl)c3)cc2OC1C(=O)OCCCC` (some centres unmarked) [Example 6], the “Rat Free Fatty Acid, elevation of plasma free fatty acids as % of Standard 2 response” value in the test with plasma free fatty acids came to 0%. Besides, the activation at 0.01 µM is 51% in test [1] and 16% in test [2].
`C[C@H](Cc1ccc2c(c1)OC(C(=O)OCc1ccccc1)C(C(=O)OCc1ccccc1)O2)NC[C@H](O)c1cccc(Cl)c1` (stereo partly drawn) [Example 12, (2,3-cis)-6-{(2R)-2-[(2R)-2-(3-Chloro-phenyl)-2-hydroxy-ethylamino]-propyl}-2,3-dihydro-benzo[1,4]dioxine-2,3-dicarboxylic acid dibenzyl ester]: the “Rat Free Fatty Acid, elevation of plasma free fatty acids as % of Standard 2 response” value with plasma free fatty acids is listed as 11%. Further, the activation at 0.01 µM in test [1] was 27%; in test [2], 11%.
Turning to `CC(C)OC(=O)C1Oc2ccc(C[C@@H](C)NC[C@H](O)c3cccc(Cl)c3)cc2OC1C(=O)OC(C)C` (some centres unmarked) [Example 4], the “Rat Free Fatty Acid, elevation of plasma free fatty acids as % of Standard 2 response” value with plasma free fatty acids was 32%. In addition, the activation at 0.01 µM in test [1] stood at 4%; in test [2] it was 9%.
As for `CC(Cc1ccc2c(c1)OC(C(=O)OC(C)C)(C(=O)OC(C)C)O2)NCC(O)c1cccc(Cl)c1` (centres unmarked) [5-{2-[2-(3-Chloro-phenyl)-2-hydroxy-ethylamino]-propyl}-benzo[1,3]dioxole-2,2-dicarboxylic acid diisopropyl ester, reference compound], the “increase of plasma free fatty acids in rats” value in the test with plasma free fatty acids (0.1 mg/kg, response of the standard itself) was 78%.
Consider `C[C@H](Cc1ccc2c(c1)OC(C(=O)OC1CCCC1)C(C(=O)OC1CCCC1)O2)NC[C@H](O)c1cccc(Cl)c1` (stereo partly drawn) [Example 10, (2,3-cis)-6-{(2R)-2-[(2R)-2-(3-Chloro-phenyl)-2-hydroxy-ethylamino]-propyl}-2,3-dihydro-benzo[1,4]dioxine-2,3-dicarboxylic acid dicyclopentyl ester], for which the “Rat Free Fatty Acid, elevation of plasma free fatty acids as % of Standard 2 response” value with plasma free fatty acids stood at 20%. Also, the results for the activation at 0.01 µM in test [1] and in test [2] were 3% and 4%, respectively.
The matching figures for `C[C@H](Cc1ccc2c(c1)OC(C(=O)OC1CCCCC1)C(C(=O)OC1CCCCC1)O2)NC[C@H](O)c1cccc(Cl)c1` (stereo partly drawn) [Example 9, (2,3-cis)-6-{(2R)-2-[(2R)-2-(3-Chloro-phenyl)-2-hydroxy-ethylamino]-propyl}-2,3-dihydro-benzo[1,4]dioxine-2,3-dicarboxylic acid dicyclohexyl ester]: 3%, 3% and 1%.
For the compound `CC(C)OC(=O)C1Oc2cc(C[C@@H](C)NC[C@H](O)c3cccc(Cl)c3)ccc2OC1C(=O)O` (stereo partly drawn) [Example 5, (2,3-cis)-6-{(2R)-2-[(2R)-2-(3-Chloro-phenyl)-2-hydroxy-ethylamino]-propyl}-2,3-dihydro-benzo[1,4]dioxine-2,3-dicarboxylic acid 3-isopropyl ester], in the test with plasma free fatty acids, the “Rat Free Fatty Acid, elevation of plasma free fatty acids as % of Standard 2 response” value came out at 6%. Further, the results for the activation at 0.01 µM in test [1] and in test [2] were 50% and 11%, respectively.
Regarding `CCOCCOC(=O)C1Oc2ccc(C[C@@H](C)NC[C@H](O)c3cccc(Cl)c3)cc2OC1C(=O)OCCOCC` (relative stereo) [Example 7, (2,3-cis)-6-{(2R)-2-[(2R)-2-(3-Chloro-phenyl)-2-hydroxy-ethylamino]-propyl}-2,3-dihydro-benzo[1,4]dioxine-2,3-dicarboxylic acid bis-(2-ethoxy-ethyl)ester], the “Rat Free Fatty Acid, elevation of plasma free fatty acids as % of Standard 2 response” value in the test with plasma free fatty acids turned out to be 7%. In addition, the “β3, % of isoproterenol activity (increase in cAMP)” value in test [1] is 40%. For the same compound, the “β2, % of isoproterenol activity (increase in cAMP)” value in test [2] turned out to be 33%.
